According to article PMC12714101, “CD160-Derived Peptide as a Bidirectional Inhibitor Toward Immune Checkpoints BTLA/HVEM and HVEM/LIGHT” (Journal of Medicinal Chemistry, 2025):
Where a SMILES comes first, the peptide text is derived from it.

Tests used:
BTLA/HVEM complex = target: T1, BTLA/HVEM complex (Homo sapiens, UniProt Q92956); assay: ELISA inhibition of BTLA/HVEM complex formation; assay type: biochemical; conditions: peptide 16.67 μM, immobilized HVEM-His, BTLA-Fc 5 μg/mL, PBS-T, 37 °C, mean of three independent experiments
T1 construct: purchased ACROBiosystems HVM-H52E9 (HVEM-His); BTA-H5255 (BTLA-Fc)
T1 sequence (Q92956 39-202 limits assumed): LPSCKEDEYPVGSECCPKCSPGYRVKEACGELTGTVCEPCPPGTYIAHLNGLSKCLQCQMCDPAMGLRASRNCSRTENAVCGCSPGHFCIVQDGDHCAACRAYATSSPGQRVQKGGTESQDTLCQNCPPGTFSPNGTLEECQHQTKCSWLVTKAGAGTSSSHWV
Procedure: In the subsequent stage of the study, the potential of the obtained compounds to inhibit the interaction between BTLA and HVEM proteins was evaluated using ELISA, following the methodology described in our previous studies. , HVEM was immobilized on the plate and incubated with peptides at three different concentrations, followed by the addition of Fc-tagged BTLA. Detection was carried out using horseradish peroxidase (HRP) conjugated with anti-human IgG and 3,3′,5,5′-tetramethylbenzidine (TMB) as a substrate. Signal intensity was directly proportional to the amount of BTLA bound to HVEM and inversely proportional to the inhibitory activity of the tested peptides. As a control, BTLA and HVEM were incubated in the absence of peptides.
Recombinant human HVEM protein with a His tag was purchased from ACROBiosystems, Newark, DE, USA (no. HVM-H52E9). Recombinant human protein BTLA-Fc and LIGHT-Fc were also purchased from ACROBiosystems, Newark, DE, USA (no. BTA-H5255 and no. LIT-H5269).
ELISA was performed using transparent 96-well NUNC Maxisorp plates (Thermo Fisher Scientific, Waltham, MA, USA). In the first step, HVEM-His, dissolved in PBS at a concentration of 5 μg/mL (100 μL/well), was immobilized on the plate by overnight incubation at 4 °C. Wells were then blocked with 5% bovine serum albumin (BSA) in PBS containing 0.05% Tween 20 (PBS-T) (200 μL/well). Next, peptides dissolved in PBS-T at concentrations of 150, 50, and 16.67 μM were added to the wells (100 μL/well). Following this, BTLA-Fc in PBS-T at a concentration of 5 μg/mL (100 μL/well) was applied. In the next step, goat anti-human IgG antibody conjugated with the HRP (Bio-Rad Laboratories, Hercules, CA, USA) in PBS-T at a ratio of 1:30,000 (v/v) was added (100 μL/well). Colorimetric detection was performed by adding 100 μL of TMB substrate (Thermo Fisher Scientific, Waltham, MA, USA) to each well and incubating the plate in the dark. At each stage, plates were incubated at 37 °C with continuous shaking for 1 h (except TMB, which was incubated for 15 min). After each incubation, wells were washed five times with PBS-T. Absorbance was measured using an Infinite M200 Pro Reader (Tecan Group Ltd., Männedorf, Switzerland) at wavelengths of 650 nm (measurement wavelength) and 492 nm (reference wavelength). Inhibition assays for the HVEM/LIGHT complex were conducted using the same approach, except that LIGHT was used instead of BTLA. The BTLA/HVEM and HVEM/LIGHT complexes without peptides served as controls. Inhibition percentages were calculated based on the assumption that PBS-T has no effect on the formation of BTLA/HVEM or HVEM/LIGHT complexes. Each ELISA was conducted in at least three independent replicates. The data were analyzed using GraphPad Prism 8 software (San Diego, CA, USA).

[1] = NMR in PBS-buffered aqueous solution (aggregation); assay type: physicochemical; conditions: 298 K, 2 mM sample
Procedure: First, circular dichroism (CD) spectra were recorded for this peptide in H2O and phosphate-buffered saline (PBS). In water, the peptide adopts a disordered structure, characterized by a minimum at 197 nm. In contrast, in PBS, it undergoes conformational ordering, forming a β-strand structure with a minimum at 214 nm and maximum at 197 nm. […] To further investigate the peptide’s structure, nuclear magnetic resonance (NMR) spectra were acquired in both buffer-free aqueous solution and PBS-buffered aqueous solution. […] Narrow amide proton chemical shift dispersion (ΔδHN = 0.7 ppm), absence of medium- and long-range nuclear Overhauser effects (NOEs), and ^3JNα coupling constants indicate a lack of well-defined secondary structure (Figures S9 and S10). […] Molecular dynamics simulations with NOE-derived distance restraints generated an ensemble of structures showing high conformational diversity. […]
NMR spectra were acquired at 298 K on Bruker spectrometers (^1H 700.55 MHz, 16.4 T and 500.13 MHz, 11.7 T). […] The ^1H–^13C HSQC spectrum was recorded at the natural abundance of the ^13C isotope. […] Spectra were processed and analyzed, respectively, with Topspin 4.4.1 (Bruker, Ettlingen, Germany) and NMRFAM-Sparky software packages. […]

With `CC[C@@H]1NC(=O)[C@@H](NC(=O)[C@H](CCC(N)=O)NC(=O)[C@H](Cc2ccc(O)cc2)NC(C)=O)CSSC[C@@H](C(=O)N[C@@H](Cc2c[nH]cn2)C(=O)N[C@@H](Cc2ccccc2)C(=O)N[C@@H](Cc2ccccc2)C(N)=O)NC(=O)[C@H](CCC(N)=O)NC(=O)[C@H](CC(C)C)NC(=O)[C@H](CCCNC(=N)N)NC(=O)[C@H]([C@@H](C)CC)NC(=O)CNC(=O)[C@H](CO)NC(=O)[C@H](CCCCN)NC(=O)[C@H](CCC(N)=O)NC(=O)[C@H](CO)NC(=O)[C@H](CCCNC(=N)N)NC(=O)[C@H](C)NC1=O` [A5, CD160(110–128) ^(C113X,G125C)] (HELM PEPTIDE1{[ac].Y.Q.C.[Abu].A.R.S.Q.K.S.G.I.R.L.Q.C.H.F.F.[am]}$PEPTIDE1,PEPTIDE1,4:R3-17:R3$$$V2.0) the inhibition at 16.67 µM (BTLA/HVEM complex) was 6.24% and the “Aggregation in PBS (NMR signal broadening)” value [1] was “peptide aggregation”.
